Assay results taken from BindingDB's records for doi:10.7270/Q2KK9971 (Nmmlsc, 2009).
pEC50: −log10 of the molar value.

These compounds were tested against T1, GTPase KRas [1-37] (Homo sapiens, UniProt G3V5T7) (assay: inhibition of fluorescent GTP binding to wild-type Ras – biochemical, pyrazoline analogs, multiplex bead flow cytometry, SAR follow-up (AID 2047)). Details: not given.
T1 construct: 1-37
T1 sequence (G3V5T7 whole entry): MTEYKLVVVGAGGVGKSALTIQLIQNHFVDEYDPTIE

| SMILES | pEC50 |
| --- | --- |
| COc1ccc(C2CC(c3ccccc3OC)=NN2c2ccc(S(N)(=O)=O)cc2)cc1 (configuration not stated) | < 4.52 |
| COc1ccc(C2CC(c3ccc(C)cc3)=NN2c2ccc(S(N)(=O)=O)cc2)cc1 (configuration not stated) | < 4.52 |
| COc1ccc(C2CC(c3cccc(C(F)(F)F)c3)=NN2c2ccc(S(N)(=O)=O)cc2)cc1 (configuration not stated) | < 4.52 |
| COc1ccc(C2CC(c3cccc(N(C)C)c3)=NN2c2ccc(S(N)(=O)=O)cc2)cc1 (configuration not stated) | < 4.52 |
| COc1ccc(C2CC(c3cccnc3)=NN2c2ccc(S(N)(=O)=O)cc2)cc1 (configuration not stated) | < 4.52 |
| COc1ccc(C2CC(c3ccncc3)=NN2c2ccc(S(N)(=O)=O)cc2)cc1 (configuration not stated) | < 4.52 |
| Fc1ccccc1C1CC(c2ccc(Br)cc2)=NN1c1ccc(Br)cc1 (configuration not stated) [2,5-bis(4-bromophenyl)-3-(2-fluorophenyl)-3,4-dihydropyrazole] | < 4.52 |
| COc1ccc(C2CC(c3ccc(F)cc3)=NN2c2cc(Cl)ccc2Cl)cc1 (configuration not stated) [2-(2,5-dichlorophenyl)-5-(4-fluorophenyl)-3-(4-methoxyphenyl)-3,4-dihydropyrazole] | < 4.52 |
| COc1ccc(C2=NN(c3ccc(Cl)c(Cl)c3)C(c3ccc(OC)cc3)C2)cc1 (configuration not stated) [2-(3,4-dichlorophenyl)-3,5-bis(4-methoxyphenyl)-3,4-dihydropyrazole] | < 4.52 |
| Fc1ccc(C2=NN(c3cccc(Br)c3)C(c3ccccc3)C2)cc1 (configuration not stated) [2-(3-bromophenyl)-5-(4-fluorophenyl)-3-phenyl-3,4-dihydropyrazole] | < 4.52 |
| COc1ccc(C2=NN(c3cccc(F)c3)C(c3ccc(OC)cc3)C2)cc1 (configuration not stated) [2-(3-fluorophenyl)-3,5-bis(4-methoxyphenyl)-3,4-dihydropyrazole] | < 4.52 |
| COc1ccc(C2CC(c3ccccc3)=NN2c2ccc(Cl)c(C(=O)O)c2)cc1OC (configuration not stated) [2-chloro-5-[3-(3,4-dimethoxyphenyl)-5-phenyl-3,4-dihydropyrazol-2-yl]benzoic acid] | < 4.52 |
| COc1ccc(C2=NN(c3cccc(F)c3)C(c3ccc(Cl)cc3)C2)cc1 (configuration not stated) [3-(4-chlorophenyl)-2-(3-fluorophenyl)-5-(4-methoxyphenyl)-3,4-dihydropyrazole] | < 4.52 |
| COc1ccc(C2C[C-](c3ccccc3)N=[N+]2c2ccc([N+](=O)[O-])cc2)cc1 (configuration not stated) [3-(4-methoxyphenyl)-2-(4-nitrophenyl)-5-phenyl-3,4-dihydropyrazole] | < 4.52 |

More lines, now with the values ahead:

| pEC50 | SMILES |
| --- | --- |
| < 4.52 | Cc1onc(-c2ccccc2)c1-c1ccc(S(N)(=O)=O)cc1 |
| < 4.52 | O=[N+]([O-])c1ccc([N+]2=N[C-](c3ccccc3)CC2c2ccccc2)cc1 (configuration not stated) |
| < 4.52 | Brc1ccc(N2N=C(c3ccccc3)CC2c2ccccc2)cc1 (configuration not stated) |
| < 4.52 | COc1ccccc1C1CC(c2ccccc2)=NN1c1ccccc1 (configuration not stated) |
| < 4.52 | Clc1cccc(N2N=C(c3ccccc3)CC2c2ccccc2)c1 (configuration not stated) |
| < 4.52 | Clc1ccc(N2N=C(c3ccccc3)CC2c2ccccc2)cc1 (configuration not stated) |
| < 4.52 | CC(=O)Oc1ccc(C2=NN(c3ccccc3)C(c3ccccc3)C2)cc1 (configuration not stated) |
| < 4.52 | O=C(O)c1ccc(N2N=C(c3ccccc3)CC2c2ccccc2)cc1 (configuration not stated) |
| < 4.52 | O=S(=O)(c1ccc(N2N=C(c3ccccc3)CC2c2ccccc2)cc1)C(F)F (configuration not stated) |
| < 4.52 | CCc1ccc(C2=NN(c3ccc(S(N)(=O)=O)cc3)C(c3ccc(F)cc3)C2)cc1 (configuration not stated) |
| < 4.52 | CN(C)c1ccc(C2C[C-](c3ccccc3)N=[N+]2c2ccc([N+](=O)[O-])cc2)cc1 (configuration not stated) |
| < 4.52 | COc1ccc(C2CC(c3ccc(F)cc3)=NN2c2cccc(F)c2)cc1OC (configuration not stated) |
| < 4.52 | COc1ccc(C2CC(c3ccc(Cl)cc3)=NN2c2ccc(S(N)(=O)=O)cc2)cc1 (configuration not stated) |
| < 4.52 | Cc1ccc(C2CC(c3ccccc3)=NN2c2ccc(S(N)(=O)=O)cc2)cc1 (configuration not stated) |
| < 4.52 | Cc1cccc(C2CC(c3ccccc3)=NN2c2ccc(S(N)(=O)=O)cc2)c1 (configuration not stated) |

Same assay, conditions: inactive by the depositor's call

| pEC50 | SMILES |
| --- | --- |
| 4.75 | COc1ccc(C2=NN(c3ccccc3)C(c3ccccc3C(F)(F)F)C2)cc1 (configuration not stated) |
| 7.02 | NS(=O)(=O)c1ccc(N2N=C(c3ccc(Cl)cc3)CC2c2ccccc2)cc1 (configuration not stated) |
| 5.99 | COc1ccc(C2CC(c3ccccc3)=NN2c2ccc(Cl)c(C(=O)O)c2)cc1 (configuration not stated) |
